Like-named read-outs stand apart in the source and are kept apart here.
Experiments:
[1] = molecular target: Recombinant full length human OGA enzyme (Homo sapiens (Human), UniProt O60502); assay: OGA Enzyme Inhibition Biochemical Assay; conditions: 1 nM OGA, 100 μM 4-MUGlcNAc, pH 6.4
Summary of the method: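 Full-length recombinant human OGA with fluorogenic 4-MUGlcNAc in McIlvaine buffer pH 6.4, 0.01% BSA; 90 min at room temperature, glycine pH 10 quench, fluorescence Ex 355/Em 460 nm. 10-point, 4-fold dilution from 20 μM; 4-parameter variable-slope fit.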

[2] = molecular target: OGA (S400 O-GLCNAC), HEK-293T cells transfected with Tau-V5 (Homo sapiens (Human), UniProt O60502); assay: Cellular OGA-Tau MSD Assay; format: cell-based; conditions: HEK-293T cells, Tau-S400-GlcNAc MSD readout
Chain of OGA (S400 O-GLCNAC), HEK-293T cells transfected with Tau-V5 (O60502 whole entry): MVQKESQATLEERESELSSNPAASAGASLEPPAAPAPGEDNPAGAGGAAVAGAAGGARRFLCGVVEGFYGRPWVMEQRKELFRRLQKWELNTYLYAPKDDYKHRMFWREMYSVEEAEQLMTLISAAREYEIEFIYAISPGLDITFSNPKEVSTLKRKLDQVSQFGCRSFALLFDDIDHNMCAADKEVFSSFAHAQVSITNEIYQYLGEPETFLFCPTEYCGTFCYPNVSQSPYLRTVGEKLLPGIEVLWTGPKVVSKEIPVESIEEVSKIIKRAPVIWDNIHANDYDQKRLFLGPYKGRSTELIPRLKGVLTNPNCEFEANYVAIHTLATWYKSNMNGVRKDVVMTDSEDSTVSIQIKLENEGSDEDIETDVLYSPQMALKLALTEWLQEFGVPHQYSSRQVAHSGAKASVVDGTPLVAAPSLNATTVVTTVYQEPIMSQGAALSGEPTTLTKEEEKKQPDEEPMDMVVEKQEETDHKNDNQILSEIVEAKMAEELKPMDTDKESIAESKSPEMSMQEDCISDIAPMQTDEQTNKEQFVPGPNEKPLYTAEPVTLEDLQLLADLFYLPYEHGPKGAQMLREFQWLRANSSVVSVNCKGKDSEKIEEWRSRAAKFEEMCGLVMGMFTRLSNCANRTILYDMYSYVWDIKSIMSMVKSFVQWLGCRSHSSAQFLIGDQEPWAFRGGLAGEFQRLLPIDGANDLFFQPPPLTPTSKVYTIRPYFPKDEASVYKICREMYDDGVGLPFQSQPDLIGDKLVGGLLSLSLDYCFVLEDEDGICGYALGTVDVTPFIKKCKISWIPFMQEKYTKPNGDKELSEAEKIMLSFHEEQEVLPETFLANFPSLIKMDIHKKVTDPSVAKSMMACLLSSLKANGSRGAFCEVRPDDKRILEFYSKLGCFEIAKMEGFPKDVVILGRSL
Summary of the method: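 HEK-293T cells transfected with OGA and Tau-V5 plasmids were treated overnight at 37° C with a 10-point, 3-fold titration from 1 uM. Lysates went onto V5-antibody MSD plates to capture Tau, probed with a Tau O-GlcNAc antibody and read by electrochemiluminescence; IC50 from a 4-parameter fit.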

[3] = Rat Liver Microsome Stability Assay; format: in vitro ADME; conditions: rat liver microsomes, 1 uM compound
P-gp (MDR1) = assay: MDR1-MDCK Efflux Ratio Assay; format: in vitro ADME; conditions: dog, read-out: MDR1-MDCK Efflux Ratio (B-A/A-B)
Procedure: MDR1-MDCK cell monolayers were grown to confluence on microporous polyester membranes in 96-well Corning insert plates. The permeability assay buffer was Hanks' Balanced Salt Solution containing 10 mM HEPES at pH of 7.4. Loperamide (1 μM) was used as a positive control P-gp substrate. Propranolol and Bestatin (1 μM) were used as high and low permeability comparators, respectively. Test compounds or positive control P-gp substrate/permeability comprators were added to respective apical and basolateral chambers for bidirectional assessment of permeability. Receiver buffer (transport buffer supplemented with 1% bovine serum albumin) was added to respective receiver chambers. MDR1-MDCK cells were incubated with test compounds at 37° C. with 5% CO2 for 2 hr. Samples were collected from the donor chamber at both 0 and 120 minutes, and from the receiver chamber at 120 minutes. Test and control compound concentrations were determined using LC-MS/MS analysis. Each determination was performed in triplicate. The apparent permeability (Papp), efflux ratio and mass balance (percent recovery) were calculated as follows: [formula] where: dCr/dt is the cumulative concentration in the receiver compartment versus time in μM s^−1 Vr is the volume of the receiver compartment in cm^3 Vd is the volume of the donor compartment in cm^3 A is the area of the insert (0.143 cm^2 for 96-well insert) CE is the estimated experimental concentration (Time=0) of the dosing solution Cr^final is the concentration of the receiver at the end of the incubation period Cd^final is the concentration of the donor at the end of the incubation period.

[4] = MDCK-MDR1, pH 7.4, MDR1-MDCK cells, 2 hr, pH 7.4
[5] = MDCK-MDR1, pH 7.4, repeated assay, value marked with asterisk (*)

Chain of Recombinant full length human OGA enzyme (O60502 whole entry): as above

SMILES	IC50 [1]	IC50 [2]	RLM % Qh (%) [3]	efflux ratio at 2 h (P-gp (MDR1); [4])	efflux ratio at 2 h (P-gp (MDR1); [5])
COc1cnc(O[C@@H]2C[C@H](C)N(Cc3cnc(NC(C)=O)s3)C2)cn1 [Example 1-73, N-(5-(((2S,4R)-4-((5-methoxypyrazin-2-yl)oxy)-2-methylpyrrolidin-1-yl)methyl)thiazol-2-yl)acetamide]	< 1 nM	3 nM	57%	2.9	–
CC(=O)Nc1ncc(CN2C[C@H](Oc3ccc(C(F)F)cn3)C[C@@H]2C)s1 [Example 1-13, N-(5-(((2S,4R)-4-((5-(difluoromethyl)pyridin-2-yl)oxy)-2-methylpyrrolidin-1-yl)methyl)thiazol-2-yl)acetamide]	1.1 nM	2 nM	90%	2.4	–
CC(=O)Nc1nc(F)c(CN2C[C@H](Oc3cc(Cl)ccn3)C[C@@H]2C)s1 [Example 1-101, N-(5-(((2S,4R)-4-((4-chloropyridin-2-yl)oxy)-2-methylpyrrolidin-1-yl)methyl)-4-fluorothiazol-2-yl)acetamide]	< 1 nM	3 nM	88%	1.5	–
CC(=O)Nc1ncc(CN2C[C@H](Oc3cc(C)nc(C)n3)C[C@@H]2C)s1 [Example 1-128, N-(5-(((2S,4R)-4-((2,6-dimethylpyrimidin-4-yl)oxy)-2-methylpyrrolidin-1-yl)methyl)thiazol-2-yl)acetamide]	< 1 nM	1 nM	48%	26.3	–
CC(=O)Nc1ncc(CN2C[C@H](Oc3cc(C(F)F)ncn3)C[C@@H]2C)s1 [Example 1-18, N-(5-(((2S,4R)-4-((6-(difluoromethyl)pyrimidin-4-yl)oxy)-2-methylpyrrolidin-1-yl)methyl)thiazol-2-yl)acetamide]	2.4 nM	12 nM	48%	11.7	–
COc1cc(O[C@H]2CCCN(Cc3sc(NC(C)=O)nc3F)C2)ncn1 [Example 1-32, (S)—N-(4-fluoro-5-((3-((6-methoxypyrimidin-4-yl)oxy)piperidin-1-yl)methyl)thiazol-2-yl)acetamide]	14 nM	32 nM	83%	3.1	–
CC(=O)Nc1ncc(CN2CCC[C@H](Oc3cc(C)nc(C)c3)C2)s1 [Example 1-64, (S)—N-(5-((3-((2,6-dimethylpyridin-4-yl)oxy)piperidin-1-yl)methyl)thiazol-2-yl)acetamide]	23 nM	31 nM	67%	35.3	–
CC(=O)Nc1ncc(CN2C[C@@H](Oc3ccc(C)nc3)C[C@H]2C)s1 (stereo in doubt) [Example 1-116, N-(5-(((2R,4S)-2-methyl-4-((6-methylpyridin-3-yl)oxy)pyrrolidin-1-yl)methyl)thiazol-2-yl)acetamide]	< 1 nM	1 nM	55%	19.6	–
COc1cc(O[C@@H]2CCCN(Cc3sc(NC(C)=O)nc3F)C2)ncn1 [Example 1-33, (R)—N-(4-fluoro-5-((3-((6-methoxypyrimidin-4-yl)oxy)piperidin-1-yl)methyl)thiazol-2-yl)acetamide]	17 nM	51 nM	65%	2.9	–
COc1cc(O[C@@H]2CC[C@H](C)N(Cc3sc(NC(C)=O)nc3F)C2)ncn1 [Example 1-35, N-(4-fluoro-5-(((2S,5R)-5-((6-methoxypyrimidin-4-yl)oxy)-2-methylpiperidin-1-yl)methyl)thiazol-2-yl)acetamide]	< 1 nM	2 nM	92%	4.3	–
COc1cncc(O[C@@H]2C[C@H](C)N(Cc3sc(NC(C)=O)nc3F)C2)n1 [Example 1-88, N-(4-fluoro-5-(((2S,4R)-4-((6-methoxypyrazin-2-yl)oxy)-2-methylpyrrolidin-1-yl)methyl)thiazol-2-yl)acetamide]	< 1 nM	1 nM	98%	4.7	–
CC(=O)Nc1ncc(CN2C[C@@H](Oc3ccc(F)cn3)C[C@H]2C)s1 [Example 1-8, N-(5-(((2R,4S)-4-((5-fluoropyridin-2-yl)oxy)-2-methylpyrrolidin-1-yl)methyl)thiazol-2-yl)acetamide]	460 nM	> 1000 nM	76%	2.3	–
CC(=O)Nc1nc(F)c(CN2CCC[C@@H](Oc3cc(C)nc(C)c3)C2)s1 [Example 1-55, (R)—N-(5-((3-((2,6-dimethylpyridin-4-yl)oxy)piperidin-1-yl)methyl)-4-fluorothiazol-2-yl)acetamide]	1.1 nM	13 nM	85%	19	–
CC(=O)Nc1ncc(CN2C[C@H](Oc3ccnc(C)c3)C[C@@H]2C)s1 [Example 1-82, N-(5-(((2S,4R)-2-methyl-4-((2-methylpyridin-4-yl)oxy)pyrrolidin-1-yl)methyl)thiazol-2-yl)acetamide]	< 1 nM	2 nM	38%	16.7	–
COc1ccnc(O[C@@H]2C[C@H](C)N(Cc3sc(NC(C)=O)nc3F)C2)n1 [Example 1-91, N-(4-fluoro-5-(((2S,4R)-4-((4-methoxypyrimidin-2-yl)oxy)-2-methylpyrrolidin-1-yl)methyl)thiazol-2-yl)acetamide]	< 1 nM	< 1 nM	81%	9.9	–
CC(=O)Nc1ncc(CN2C[C@H](Oc3cnc(Cl)cc3C)C[C@@H]2C)s1 [Example 1-17, N-(5-(((2S,4R)-4-((6-chloro-4-methylpyridin-3-yl)oxy)-2-methylpyrrolidin-1-yl)methyl)thiazol-2-yl)acetamide]	< 1 nM	2 nM	88%	12	12.4
CC(=O)Nc1ncc(CN2CCC[C@@H](Oc3ccc(F)cn3)C2)s1 [Example 1-3, (R)—N-(5-((3-((5-fluoropyridin-2-yl)oxy)piperidin-1-yl)methyl)thiazol-2-yl)acetamide]	140 nM	38 nM	82%	2.3	2.2
CC(=O)Nc1nc(F)c(CN2C[C@H](Oc3cc(F)c(F)cn3)C[C@@H]2C)s1 [Example 1-102, N-(5-(((2S,4R)-4-((4,5-difluoropyridin-2-yl)oxy)-2-methylpyrrolidin-1-yl)methyl)-4-fluorothiazol-2-yl)acetamide]	< 1 nM	2 nM	82%	1.2	–
CC(=O)Nc1ncc(CN2C[C@H](Oc3cc(F)ncn3)C[C@@H]2C)s1 [Example 1-78, N-(5-(((2S,4R)-4-((6-fluoropyrimidin-4-yl)oxy)-2-methylpyrrolidin-1-yl)methyl)thiazol-2-yl)acetamide]	2.4 nM	6 nM	47%	4.1	–
COCCOc1cc(O[C@@H]2C[C@H](C)N(Cc3sc(NC(C)=O)nc3F)C2)ncn1 [Example 1-23, N-(4-fluoro-5-(((2S,4R)-4-((6-(2-methoxyethoxy)pyrimidin-4-yl)oxy)-2-methylpyrrolidin-1-yl)methyl)thiazol-2-yl)acetamide]	< 1 nM	3 nM	31%	7.7	–
COc1nc(C)cc(O[C@@H]2C[C@H](C)N(Cc3cnc(NC(C)=O)s3)C2)n1 [Example 1-75, N-(5-(((2S,4R)-4-((2-methoxy-6-methylpyrimidin-4-yl)oxy)-2-methylpyrrolidin-1-yl)methyl)thiazol-2-yl)acetamide]	< 1 nM	2 nM	58%	6.7	–
CC(=O)Nc1ncc(CN2C[C@H](Oc3cc(N4CCCC4)ncn3)C[C@@H]2C)s1 [Example 1-129, N-(5-(((2S,4R)-2-methyl-4-((6-(pyrrolidin-1-yl)pyrimidin-4-yl)oxy)pyrrolidin-1-yl)methyl)thiazol-2-yl)acetamide]	< 1 nM	1 nM	65%	25.5	–
